Experiment [1] has as its system MCC cell lines (WAGA, MKL-1, MKL-2, MCC13, MCC26, UISO). As to the kind of experiment: qHTS cell viability, all six MCC cell lines as a group (mean AUC, MCC.avg). Type of experiment: cell-based, human. (In general: qHTS replaces the single test concentration by a dilution series.)
The subject of the next experiment is UISO cells (VN-MCC). As to the kind of experiment: qHTS cell viability (CellTiter-Glo, 72 h; primary and follow-up small molecule screen). The class given is cell-based, human.
For another experiment, the system named is MCC13 cells (VN-MCC). Described as above. The class given is cell-based, human.
The subject of the next experiment is HACAT cells. As to the kind of experiment: qHTS cell viability (CellTiter-Glo, 72 h; primary screen), control cell line. Type of experiment: cell-based, human.
In the next experiment the test system is CRL-7250 cells. Described as above. The class given is cell-based.
The next experiment relates to MKL-1 cells (VP-MCC). In words: qHTS cell viability (CellTiter-Glo, 72 h; primary and follow-up small molecule screen). Type of experiment: cell-based, human.
Experiment [2] concerns six MCC cell lines and four control cell lines. In words: qHTS cell viability, all 10 cell lines screened. Type of experiment: cell-based.
Another experiment deals with NIH-3T3 cells. As to the kind of experiment: qHTS cell viability (CellTiter-Glo, 72 h; primary screen), control cell line. The class given is cell-based, mouse.
For another experiment, the system named is MCC26 cells (VN-MCC). In words: qHTS cell viability (CellTiter-Glo, 72 h; primary and follow-up small molecule screen). The class given is cell-based, human.
The subject of experiment [3] is control cell lines (HACAT, HEK293T, CRL-7250, NIH-3T3). As to the kind of experiment: qHTS cell viability, control cell lines as a group (mean AUC, Control.avg). Type of experiment: cell-based.
In another experiment the test system is MKL-2 cells (VP-MCC). In words: qHTS cell viability (CellTiter-Glo, 72 h; primary and follow-up small molecule screen). Type of experiment: cell-based, human.
Experiment [4] relates to VP-MCC cell lines (WAGA, MKL-1, MKL-2). In words: qHTS cell viability, VP-MCC cell lines as a group (mean AUC, VP.MCC.avg). The class given is cell-based, human.
The next experiment relates to WAGA cells (VP-MCC). In words: qHTS cell viability (CellTiter-Glo, 72 h; primary and follow-up small molecule screen). The class given is cell-based, human.
In experiment [5] the test system is VN-MCC cell lines (MCC13, MCC26, UISO). In words: qHTS cell viability, VN-MCC cell lines as a group (mean AUC, VN.MCC.avg). Type of experiment: cell-based, human.
The next experiment deals with HEK293T cells. As to the kind of experiment: qHTS cell viability (CellTiter-Glo, 72 h; primary screen), control cell line. The class given is cell-based, human.
Setting [6] is: NPC library, mean AUC of six MCC cell lines.
Setting [7] is: NPC library, 8-point DRC, area under dose-response curve.
[8] abbreviates: NPC library, 8-point DRC, control cell line.
The mark [9] stands for this setting: NPC library, mean AUC of control cell lines.
[10] abbreviates: NPC library, mean AUC of VP-MCC cell lines.
Setting [11] is: NPC library, mean AUC of VN-MCC cell lines.
[12] abbreviates: MIPE library, 11-point DRC, sheet S2E.
Where [13] appears, read: MIPE library, 11-point DRC, control cell line, sheet S2E.

Structures can show the parent of a compound that is named as a salt. Where two headings read alike, the source gives them in different places.

In turn, `CNC(=O)[C@H](CC1=CN=C2C=CCC=C12)NC(=O)[C@@H](CC(=O)NO)CC(C)C` [GM-6001] had an MCC_Avg_AUC in [1] of 388.271. The UISO_AUC in the experiment with UISO cells (VN-MCC) stood at 484.498. For the same molecule, the MCC13_AUC in the experiment on MCC13 cells (VN-MCC) worked out at 475.165. Further, the HACAT_AUC in the experiment on HACAT cells came out at 458.777. The molecule further returned a CRL7250_AUC in the experiment on CRL-7250 cells of 472.869. In addition, the MKL1_AUC in the experiment with MKL-1 cells (VP-MCC) turned out to be 284.283. The same molecule registered a Control-MCC in experiment [2] of 80.8804. Besides, the NIH3T3_AUC in the experiment with NIH-3T3 cells worked out at 471.496. The MCC26_AUC in the experiment with MCC26 cells (VN-MCC) was 475.207. This molecule also came in with a Control_Avg_AUC in experiment [3] of 469.151. Further, in the experiment on MKL-2 cells (VP-MCC), the MKL2_AUC is listed as 291.464. For the same molecule, in experiment [4], the Control-VP-MCC is reported as 170.899 and the VP-MCC_Avg_AUC came to 298.252. The molecule further registered a WAGA_AUC in the experiment on WAGA cells (VP-MCC) of 319.008. For the same molecule, in [5], the Control-VN-MCC is on record as -9.139 and the VN-MCC_Avg_AUC is 478.29. This molecule also came in with an HEK293T_AUC with HEK293T cells of 473.463.

For `COc1ccc(CCN(C)CCCC(C#N)(c2cc(OC)c(OC)c(OC)c2)C(C)C)cc1OC` (stereo not drawn) [Gallopamil hydrochloride], the MCC_Avg_AUC in experiment [1] (setting [6]) was 434.143. The molecule further returned a UISO_AUC in the experiment on UISO cells (VN-MCC) (setting [7]) of 431.729. The molecule also came in with an MCC13_AUC with MCC13 cells (VN-MCC) (setting [7]) of 438.844. The HACAT_AUC in the experiment with HACAT cells (setting [8]) turned out to be 488.048. The same molecule showed a CRL7250_AUC in the experiment with CRL-7250 cells (setting [8]) of 487.096. Moreover, the MKL1_AUC with MKL-1 cells (VP-MCC) (setting [7]) is reported as 429.324. Further, the Control-MCC in [2] (NPC library, Control AUC minus MCC AUC (therapeutic window)) amounted to 45.0671. This molecule registered an NIH3T3_AUC with NIH-3T3 cells (setting [8]) of 476.798. In the experiment on MCC26 cells (VN-MCC) (setting [7]), this molecule displayed an MCC26_AUC of 402.644. This molecule also displayed a Control_Avg_AUC in experiment [3] (setting [9]) of 479.21. The MKL2_AUC with MKL-2 cells (VP-MCC) (setting [7]) is listed as 457.405. This molecule also yielded a Control-VP-MCC in experiment [4] (NPC library, Control AUC minus VP-MCC AUC (therapeutic window)) of 35.3303. The molecule also gave a VP-MCC_Avg_AUC in experiment [4] (setting [10]) of 443.879. Moreover, the WAGA_AUC with WAGA cells (VP-MCC) (setting [7]) is 444.909. This molecule displayed a Control-VN-MCC in experiment [5] (NPC library, Control AUC minus VN-MCC AUC (therapeutic window)) of 54.804. The same molecule showed a VN-MCC_Avg_AUC in [5] (setting [11]) of 424.406. Moreover, the HEK293T_AUC with HEK293T cells (setting [8]) was found to be 464.897.

On to `C=CC(=O)Nc1cccc(Nc2nc(NC3CCC(N(C)C)CC3)nc3c2ncn3C(C)C)c1` (stereo not drawn) [HMSL10084], for which the MCC_Avg_AUC in experiment [1] (MIPE library, mean AUC of six MCC cell lines, sheet S2E) amounted to 269.649. This molecule registered a UISO_AUC with UISO cells (VN-MCC) (setting [12]) of 276.887. The MCC13_AUC in the experiment on MCC13 cells (VN-MCC) (setting [12]) stood at 424.628. Besides, the HACAT_AUC in the experiment on HACAT cells (setting [13]) came to 381.06. In addition, the CRL7250_AUC with CRL-7250 cells (setting [13]) is 274.567. This molecule gave an MKL1_AUC in the experiment on MKL-1 cells (VP-MCC) (setting [12]) of 144.905. In addition, the Control-MCC in experiment [2] (MIPE library, Control AUC minus MCC AUC (therapeutic window), sheet S2E) is 83.0363. Moreover, in the experiment on NIH-3T3 cells (setting [13]), the NIH3T3_AUC amounted to 437.409. This molecule also had an MCC26_AUC in the experiment with MCC26 cells (VN-MCC) (setting [12]) of 381.337. Further, in experiment [3] (MIPE library, mean AUC of control cell lines, sheet S2E), the Control_Avg_AUC turned out to be 352.686. The molecule also came in with an MKL2_AUC in the experiment on MKL-2 cells (VP-MCC) (setting [12]) of 208.594. In addition, the Control-VP-MCC in experiment [4] (MIPE library, Control AUC minus VP-MCC AUC (therapeutic window), sheet S2E) turned out to be 174.338. In addition, the VP-MCC_Avg_AUC in experiment [4] (MIPE library, mean AUC of VP-MCC cell lines, sheet S2E) is on record as 178.348. Further, the WAGA_AUC with WAGA cells (VP-MCC) (setting [12]) amounted to 181.546. In [5] (MIPE library, Control AUC minus VN-MCC AUC (therapeutic window), sheet S2E), the Control-VN-MCC is -8.265. Besides, the VN-MCC_Avg_AUC in experiment [5] (MIPE library, mean AUC of VN-MCC cell lines, sheet S2E) was determined as 360.951. In the experiment with HEK293T cells (setting [13]), this molecule registered an HEK293T_AUC of 317.706.

`Oc1ccc(O)cc1` [Hydroquinone]: the MCC_Avg_AUC in [1] (setting [6]) was 442.057. Further, the UISO_AUC in the experiment on UISO cells (VN-MCC) (NPC library, qHTS dose-response AUC, UISO) is reported as 450.538; with UISO cells (VN-MCC) (area under the dose-response curve, UISO cells, AUC<450 = reduced viability) it was 450.538. The MCC13_AUC in the experiment with MCC13 cells (VN-MCC) (NPC library, qHTS dose-response AUC, MCC13) is 503.441; in the experiment with MCC13 cells (VN-MCC) (area under the dose-response curve, MCC13 cells, AUC<450 = reduced viability), 503.441. Also, the HACAT_AUC in the experiment with HACAT cells (NPC library, qHTS dose-response AUC, HACAT control) was determined as 491.952; in the experiment on HACAT cells (area under the dose-response curve, HACAT control cells, AUC<450 = reduced viability) it was 491.952. Further, the CRL7250_AUC in the experiment on CRL-7250 cells (NPC library, qHTS dose-response AUC, CRL7250 control) was determined as 487.877; in the experiment on CRL-7250 cells (area under the dose-response curve, CRL7250 control cells, AUC<450 = reduced viability), 487.877. For the same molecule, the MKL1_AUC in the experiment with MKL-1 cells (VP-MCC) (NPC library, qHTS dose-response AUC, MKL1) was 415.173; with MKL-1 cells (VP-MCC) (area under the dose-response curve, MKL-1 cells, AUC<450 = reduced viability), 415.173. Further, the Control-MCC in [2] (NPC library, therapeutic window: Control avg AUC minus MCC avg AUC) is listed as 45.1616. For the same molecule, the NIH3T3_AUC in the experiment on NIH-3T3 cells (NPC library, qHTS dose-response AUC, NIH3T3 control) is 488.45; in the experiment on NIH-3T3 cells (area under the dose-response curve, NIH3T3 control cells, AUC<450 = reduced viability) it was 488.45. For the same molecule, the MCC26_AUC in the experiment on MCC26 cells (VN-MCC) (NPC library, qHTS dose-response AUC, MCC26) was 512.585; in the experiment on MCC26 cells (VN-MCC) (area under the dose-response curve, MCC26 cells, AUC<450 = reduced viability), 512.585. Also, the Control_Avg_AUC in experiment [3] (setting [9]) amounted to 487.218. Besides, the MKL2_AUC in the experiment with MKL-2 cells (VP-MCC) (NPC library, qHTS dose-response AUC, MKL2) is listed as 400.457; in the experiment on MKL-2 cells (VP-MCC) (area under the dose-response curve, MKL-2 cells, AUC<450 = reduced viability), 400.457. In addition, the VP-MCC_Avg_AUC in experiment [4] (setting [10]) came to 395.258. Further, the Control-VP-MCC in [4] (NPC library, therapeutic window: Control avg AUC minus VP-MCC avg AUC) worked out at 91.96. For the same molecule, the WAGA_AUC with WAGA cells (VP-MCC) (NPC library, qHTS dose-response AUC, WAGA) is 370.144; in the experiment with WAGA cells (VP-MCC) (area under the dose-response curve, WAGA cells, AUC<450 = reduced viability), 370.144. In addition, the VN-MCC_Avg_AUC in [5] (setting [11]) was 488.855. In [5] (NPC library, therapeutic window: Control avg AUC minus VN-MCC avg AUC), the Control-VN-MCC is listed as -1.637. Moreover, the HEK293T_AUC was determined as 480.593 in the experiment on HEK293T cells (NPC library, qHTS dose-response AUC, HEK293T control) and 480.593 with HEK293T cells (area under the dose-response curve, HEK293T control cells, AUC<450 = reduced viability).

Values taken from article PMC11822212, “High-throughput screening identifies Aurora kinase B as a critical therapeutic target for Merkel cell carcinoma” (Nature Communications, 2025).
